Measured values from patent publication US20230414715A1, “TRAIL COMPOUNDS FOR REDUCING CANCER TREAMENT SIDE EFFECTS” (BROWN UNIVERSITY, priority 2022, published 2023).
Entries after “also recorded” stand apart in the source; their conditions may differ.

Experiments:
Assay type in all cases: in vivo, mouse
serum cytokines = assay: Serum cytokine analysis (Luminex) of irradiated mice; conditions: treated versus control
Description: (§1) Animal studies were carried out at Brown University facilities with approval from Brown University IACUC. C57B1/6 mice (Taconic), mice with bi-allelic loss of TRAIL Death Receptor-(DR5-/-) in a C57B1/6 background, and mice with bi-allelic loss of TRAIL (TRAIL -/-) in a C57B1/6 background were given a single whole-thorax x-ray (Philips RT250) irradiation dose of 20 Gy with shielding of other organs. 8-15-week-old male and female mice of each genotype were used. […] Treatment was continued for two weeks, where TLY012 was administered twice a week and ONC201 was administered once a week. For each genetic background, two mice received a control PO, two mice received TLY012 IP, and two mice received ONC201 PO. Mice were weighed twice a week, and 13 days post-irradiation all mice were euthanized. Organs were harvested from the mice and 600 μL of blood was collected via cardiac puncture for serum cytokine analysis. Organs were preserved in 10% formalin then embedded in paraffin and sectioned at a distance of 5 μm. […] TRAIL-/- female mice were also subjected to a survival study with a single whole-thorax radiation doses of 15 Gy or 18 Gy treated with the same regimen of TLY012 or control (n=2/radiation dose/treatment) (FIG. 3B). In order to determine the lethal dose of radiation for C57B1/6 mice, female C57B1/6 mice were treated with a single dose of whole-thorax irradiation of 25 Gy in a survival study where they were treated with either TLY012 or remained control (n=6/treatment) (FIG. 3C).
All mouse serum samples were analyzed by a custom R&D systems Murine Premixed Multi- Analyte Kit (R&D Systems, Inc., Minneapolis, MN). The panel was run on a Luminex 200 Instrument (Luminex Corporation, Austin, TX) according to the manufacturer's instructions. Murine serum levels of Angiopoietin-2, BAFF/BLyS/TNFSF13B, CCL2/JE/MCP-1, CCL3/MIP-1 alpha, CCL4/MIP-1 beta, CCL5/RANTES, CCL7/MCP-3/MARC, CCL11/Eotaxin, CCL12/MCP-5, CCL20/MIP-3 alpha, CCL21/6Ckine, CCL22/MDC, Chitinase 3-like 1, CXCL1/GRO alpha/KC/CINC-1, CXCL10/IP-10/CRG-2, CXCL12/S DF- 1 alpha, Dkk-1, FGF basic/FGF2/bFGF, GDF-15, GM-CSF, Granzyme B, IFN-gamma, IGF-I/IGF-1, IL-1 alpha/IL-1F1, IL-1 beta/IL-1F2, IL-2, IL-3, IL-4, IL-6, IL-7, IL-10, IL-13, IL-16, IL-17/IL-17A, IL-27, IL-33 M-CSF, MMP-3, MMP-8, MMP-12, Prolactin, TWEAK/TNFSF12, VEGF, and VEGFR2/KDR/Flk-1 were measured. Analyte values were reported in picograms per milliliter (pg/mL). […] Latent TGF-β was activated in samples using 1 N HCl and samples were neutralized with 1.2 N NaOH/0.5 M HEPES. Samples were assayed immediately after neutralization.

TRAIL-/- mice [1] = assay: Radiation pneumonitis after whole-thorax x-ray irradiation, H&E of lung, TRAIL-null mice; conditions: TRAIL-/- male or female mice, 20 Gy thoracic irradiation, two weeks treatment, FIG. 2A, B
Description: as §1, with “In order to determine the lethal dose of radiation for C57B1/6 mice, female C57B1/6 mice were treated with a single dose of whole-thorax irradiation of 25 Gy in a survival study where they were treated with either TLY012 or remained control (n=6/treatment) (FIG. 3C).” left out

[2] = test system: lung tissue in irradiated C57B1/6 mice; assay: Immunohistochemistry of irradiated lung tissue
Excerpt: Paraffin embedded sections of tissue were deparaffinized in xylene and rehydrated through graded ethanol solutions to phosphate-buffered saline (PBS). Heat-induced antigen retrieval (in 0.01 M citrate buffer; pH 6.0), endogenous peroxidase blocking (3% H202), and blocking were done using a standard protocol. […] Slides were developed with diaminobenzidine substrate (Vector Laboratories SK-4100) and counterstained with hematoxylin (Richard Allen Scientific). Slides were scanned (Olympus VS200) and representative brightfield images were taken and analyzed with OlyVIA software.

male TRAIL-/- mice = assay: Masson's trichrome stain of lung 22 weeks post-radiation (late fibrosis); conditions: 18 Gy, 10 mg/kg twice a week
Excerpt: In order to examine the late term effects of thoracic radiation, we designed an experiment where the single radiation dose was lowered to 18 Gy in male TRAIL-/- mice. […] At 22 weeks when mice reached criteria for euthanasia, they were sacrificed and lung tissue was harvested. Lung tissue slides were stained with Masson's trichrome and imaged at 10X on an Olympus VS200 slide scanner.

female C57B1/6 mice = assay: 48-hour post-radiation TLY012 treatment; conditions: 20 Gy, 10 mg/kg twice a week, preliminary results
Excerpt: Mice were weighed twice a week, and then euthanized on day 13 post-irradiation. […] H&E-stained slides of the lungs were imaged at 20× magnification.

C57B1/6 mice = assay: Radiation pneumonitis after whole-thorax x-ray irradiation, H&E of lung, wild-type mice
Description: However, before embarking on the planned experiment, we decided to perform a preliminary, short-term treatment feasibility experiment to ensure some mouse survival after 20 Gy of thoracic irradiation (FIG. 1B). The preliminary experiment was performed with WT and DR5-null mice that were irradiated with 20 Gy, and this was followed by either weekly doses of TIC10/ONC201 (100 mg/kg for total of two doses) or twice a week doses of TLY012 (10 mg/kg for total of four doses) for 2 weeks.
as §1

TRAIL-/- mice [3] = assay: Survival after whole-thorax irradiation, TRAIL-/- mice
Description: Starting one hour before irradiation, mice were treated with either 10 mg/kg of TLY012 (D&D Pharmatech) by intraperitoneal (IP) injection or 100 mg/kg of ONC201/TIC10 (Chimerix/Oncoceutics) by oral gavage (PO) or a control gavage consisting of 20% Cremophor® EL (Sigma #238470) and 70% Dulbecco's phosphate buffered saline solution (Cytiva SH30264.02) per volume via PO (n=2/gender/treatment).

[4] = irradiated rescued versus irradiated control lung tissues
[5] = normal or inflamed lung, treated versus irradiated control

TLY012: N-terminal PEGylated recombinant human TRAIL; PEGylated trimeric TRAIL formulation
CCL3/MIP-lalpha serum level (serum cytokines): increased
CXCL1 serum level (serum cytokines): increased
FGF basic serum level (serum cytokines): increase
GDF-15 serum level (serum cytokines): increased
IL6 serum level (serum cytokines): increased
MMP-8 serum level (serum cytokines): increased
rescue from radiation pneumonitis (TRAIL-/- mice [1]): rescued
NFkB [2, 4]: no differences
proliferation [2, 4]: no differences
DNA double strand break marker gamma-H2AX [2, 5]: no difference
T-cell infiltration (CD3-epsilon) [2, 5]: no difference
collagen in lungs ([2]; rescued lungs versus irradiated control): less collagen
collagen deposition / fibrosis (Masson's trichrome) (male TRAIL-/- mice): rescue; also recorded: decrease in collagen deposition; also recorded: less fibrosis
rescue when treatment starts 48 hours after irradiation (female C57B1/6 mice): some rescue is possible
protection from pneumonitis (C57B1/6 mice; WT mice, 20 Gy thoracic irradiation, preliminary experiment, 2 weeks treatment, versus irradiated control, FIG. 1C): qualitative evidence of protection from pneumonitis
rescue from radiation-induced pneumonitis (C57B1/6 mice; irradiated C57B1/6 mice, FIG. 2): could rescue mice from radiation-induced pneumonitis
protection from lethality (TRAIL-/- mice [3]; female TRAIL-/- mice, 15 Gy, FIG. 3B): protection from lethality
survival (TRAIL-/- mice [3]; female TRAIL-/- mice, 18 Gy whole-thorax irradiation, FIG. 3B): 3 weeks
survival / rescue from lethality (TRAIL-/- mice [3]; male TRAIL-/- mice, 18 Gy chest irradiation, 10 mg/kg, FIG. 3A): increased survival; also recorded: rescue from lethality
